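GI50 marks 50% less growth. TGI marks complete inhibition of growth.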
Key:
Assay in all cases: NCI anticancer screen, dose series, 384-well format
MDA-MB-468 breast = system: MDA-MB-468 breast
SNB-19 CNS = system: SNB-19 CNS
TK-10 renal = system: TK-10 renal
CAKI-1 renal = system: CAKI-1 renal
SK-MEL-28 melanoma = system: SK-MEL-28 melanoma
OVCAR-3 ovarian = system: OVCAR-3 ovarian
SK-OV-3 ovarian = system: SK-OV-3 ovarian
COLO 205 colon = system: COLO 205 colon
HL-60(TB) leukemia = system: HL-60(TB) leukemia
NCI/ADR-RES ovarian = system: NCI/ADR-RES ovarian
A498 renal = system: A498 renal
HOP-62 NSCLC = system: HOP-62 NSCLC
LOX IMVI melanoma = system: LOX IMVI melanoma
T-47D breast = system: T-47D breast
SF-539 CNS = system: SF-539 CNS
U251 glioblastoma = system: U251 glioblastoma
SK-MEL-2 melanoma = system: SK-MEL-2 melanoma
UACC-62 melanoma = system: UACC-62 melanoma
OVCAR-8 ovarian = system: OVCAR-8 ovarian
NCI-H460 NSCLC = system: NCI-H460 NSCLC
NCI-H322M lung = system: NCI-H322M lung
UO-31 renal = system: UO-31 renal
MDA-MB-435 melanoma = system: MDA-MB-435 melanoma
SK-MEL-5 melanoma = system: SK-MEL-5 melanoma
NCI-H23 lung = system: NCI-H23 lung
MCF7 breast = system: MCF7 breast
MOLT-4 leukemia = system: MOLT-4 leukemia
CCRF-CEM leukemia = system: CCRF-CEM leukemia
ACHN renal = system: ACHN renal
KM12 colon = system: KM12 colon
DU-145 prostate = system: DU-145 prostate
K-562 leukemia = system: K-562 leukemia
NCI-H226 lung = system: NCI-H226 lung
786-0 renal = system: 786-0 renal
SW-620 colon = system: SW-620 colon
SF-268 CNS = system: SF-268 CNS
SF-295 CNS = system: SF-295 CNS
SN12C renal = system: SN12C renal
RXF 393 renal = system: RXF 393 renal
HCT-15 colon = system: HCT-15 colon
BT-549 breast = system: BT-549 breast
OVCAR-4 ovarian = system: OVCAR-4 ovarian
HOP-92 NSCLC = system: HOP-92 NSCLC
HCT-116 colon = system: HCT-116 colon
IGROV1 ovarian = system: IGROV1 ovarian
MDA-MB-231 breast = system: MDA-MB-231 breast
OVCAR-5 ovarian = system: OVCAR-5 ovarian
UACC-257 melanoma = system: UACC-257 melanoma
PC-3 prostate = system: PC-3 prostate
A549 NSCLC = system: A549 NSCLC
NCI-H522 lung = system: NCI-H522 lung
SR leukemia = system: SR leukemia
HT29 colon = system: HT29 colon
RPMI-8226 leukemia = system: RPMI-8226 leukemia
HCC-2998 colon = system: HCC-2998 colon
M14 melanoma = system: M14 melanoma
MALME-3M melanoma = system: MALME-3M melanoma

`CCOc1cc(C(C)(C)C)ccc1C1=N[C@@](C)(c2ccc(Cl)cc2)[C@@](C)(c2ccc(Cl)cc2)N1C(=O)N1CCN(CCCS(C)(=O)=O)CC1` gave a GI50 (MDA-MB-468 breast) of 2040 nM, a TGI (MDA-MB-468 breast) of 5160 nM and a GI50 (SNB-19 CNS) of 3180 nM. For the same compound, the TGI (SNB-19 CNS) was 11300 nM, the GI50 (TK-10 renal) was 2830 nM and the TGI (TK-10 renal) was 8930 nM. For the same compound, the GI50 (CAKI-1 renal) was 122 nM, the TGI (CAKI-1 renal) was 1470 nM and the GI50 (SK-MEL-28 melanoma) was 3860 nM. The TGI (SK-MEL-28 melanoma) was 10900 nM, the GI50 (OVCAR-3 ovarian) was 2110 nM and the TGI (OVCAR-3 ovarian) was 3760 nM. The GI50 (SK-OV-3 ovarian) was 2600 nM, the TGI (SK-OV-3 ovarian) was 7360 nM and the GI50 (COLO 205 colon) was 3540 nM. The TGI (COLO 205 colon) was 9600 nM, the GI50 (HL-60(TB) leukemia) was 2560 nM and the TGI (HL-60(TB) leukemia) was 4040 nM. The GI50 (NCI/ADR-RES ovarian) was 2370 nM, the TGI (NCI/ADR-RES ovarian) was 6070 nM and the GI50 (A498 renal) was 185 nM. For the same compound, the TGI (A498 renal) was 1370 nM, the GI50 (HOP-62 NSCLC) was 2480 nM and the TGI (HOP-62 NSCLC) was 6590 nM. The GI50 (LOX IMVI melanoma) was 892 nM, the TGI (LOX IMVI melanoma) was 2120 nM and the GI50 (T-47D breast) was 2440 nM. The TGI (T-47D breast) was 8590 nM, the GI50 (SF-539 CNS) was 2030 nM and the TGI (SF-539 CNS) was 4250 nM. The GI50 (U251 glioblastoma) was 3710 nM, the TGI (U251 glioblastoma) was 11900 nM and the GI50 (SK-MEL-2 melanoma) was 2260 nM. It also gave a TGI (SK-MEL-2 melanoma) of 4190 nM, a GI50 (UACC-62 melanoma) of 67.8 nM and a TGI (UACC-62 melanoma) of 1590 nM. The GI50 (OVCAR-8 ovarian) was 3560 nM, the TGI (OVCAR-8 ovarian) was 12600 nM and the GI50 (NCI-H460 NSCLC) was 224 nM. For the same compound, the TGI (NCI-H460 NSCLC) was 1300 nM, the GI50 (NCI-H322M lung) was 2280 nM and the TGI (NCI-H322M lung) was 3960 nM. For the same compound, the GI50 (UO-31 renal) was 53.4 nM, the TGI (UO-31 renal) was 205 nM and the GI50 (MDA-MB-435 melanoma) was 3940 nM. It also gave a TGI (MDA-MB-435 melanoma) of 11700 nM, a GI50 (SK-MEL-5 melanoma) of 1390 nM and a TGI (SK-MEL-5 melanoma) of 2690 nM. It also gave a GI50 (NCI-H23 lung) of 5590 nM, a TGI (NCI-H23 lung) of 16400 nM and a GI50 (MCF7 breast) of 411 nM. It also gave a TGI (MCF7 breast) of 1940 nM, a GI50 (MOLT-4 leukemia) of 29.6 nM and a TGI (MOLT-4 leukemia) of 97.5 nM. For the same compound, the GI50 (CCRF-CEM leukemia) was 2120 nM, the TGI (CCRF-CEM leukemia) was 3700 nM and the GI50 (ACHN renal) was 205 nM. It also gave a TGI (ACHN renal) of 1210 nM, a GI50 (KM12 colon) of 2230 nM and a TGI (KM12 colon) of 4770 nM. For the same compound, the GI50 (DU-145 prostate) was 3160 nM, the TGI (DU-145 prostate) was 10100 nM and the GI50 (K-562 leukemia) was 2940 nM. It also gave a TGI (K-562 leukemia) of 8630 nM, a GI50 (NCI-H226 lung) of 108 nM and a TGI (NCI-H226 lung) of 359 nM. It also gave a GI50 ([…]-0 renal) of 2510 nM, a TGI (786-0 renal) of 7150 nM and a GI50 (SW-620 colon) of 4240 nM. For the same compound, the TGI (SW-620 colon) was 13200 nM, the GI50 (SF-268 CNS) was 2650 nM and the TGI (SF-268 CNS) was 7380 nM. For the same compound, the GI50 (SF-295 CNS) was 1930 nM, the TGI (SF-295 CNS) was 3850 nM and the GI50 (SN12C renal) was 2400 nM. The TGI (SN12C renal) was 5210 nM, the GI50 (RXF 393 renal) was 2230 nM and the TGI (RXF 393 renal) was 4550 nM. It also gave a GI50 (HCT-15 colon) of 1900 nM, a TGI (HCT-15 colon) of 3490 nM and a GI50 (BT-549 breast) of 2350 nM. For the same compound, the TGI (BT-549 breast) was 5590 nM, the GI50 (OVCAR-4 ovarian) was 2530 nM and the TGI (OVCAR-4 ovarian) was 5890 nM. For the same compound, the GI50 (HOP-92 NSCLC) was 2240 nM, the TGI (HOP-92 NSCLC) was 4680 nM and the GI50 (HCT-116 colon) was 327 nM. For the same compound, the TGI (HCT-116 colon) was 1610 nM, the GI50 (IGROV1 ovarian) was 1410 nM and the TGI (IGROV1 ovarian) was 3320 nM. The GI50 (MDA-MB-231 breast) was 2660 nM, the TGI (MDA-MB-231 breast) was 6530 nM and the GI50 (OVCAR-5 ovarian) was 3520 nM. It also gave a TGI (OVCAR-5 ovarian) of 10800 nM, a GI50 (UACC-257 melanoma) of 1440 nM and a TGI (UACC-257 melanoma) of 3140 nM. The GI50 (PC-3 prostate) was 2150 nM, the TGI (PC-3 prostate) was 4430 nM and the GI50 (A549 NSCLC) was 405 nM. It also gave a TGI (A549 NSCLC) of 1630 nM, a GI50 (NCI-H522 lung) of 3250 nM and a TGI (NCI-H522 lung) of 8970 nM. It also gave a GI50 (SR leukemia) of 20 nM, a TGI (SR leukemia) of 56.9 nM and a GI50 (HT29 colon) of 1870 nM. For the same compound, the TGI (HT29 colon) was 3290 nM, the GI50 (RPMI-8226 leukemia) was 1820 nM and the TGI (RPMI-8226 leukemia) was 3220 nM. It also gave a GI50 (HCC-2998 colon) of 1470 nM, a TGI (HCC-2998 colon) of 2960 nM and a GI50 (M14 melanoma) of 1070 nM. It also gave a TGI (M14 melanoma) of 3240 nM, a GI50 (MALME-3M melanoma) of 753 nM and a TGI (MALME-3M melanoma) of 2620 nM.
